# Source: patent US9931373B2, “Method of reducing cancer cell proliferation by administering recombinant alpha-fetoprotein” (priority 2005, dated 2018)
# Tests used:
# [1] = biological target: T1, rhAFP (Homo sapiens, UniProt P02771); assay: Formation of noncovalent complexes with rhAFP, absorption spectra and Sephadex G-25; type: binding; conditions: steady-state absorption; curcumin 30 μM, rhAFP 5 μM to 40 μM, FIG. 12A
# T1 construct: pre-pro secretion region of yeast MFalpha1 (secretion leader, removed on secretory processing) (N, cleaved yes); made in house; host or cells: Saccharomyces cerevisiae YBS723/pKX (secreted into the culture liquid)
# T1 sequence (P02771 20-609): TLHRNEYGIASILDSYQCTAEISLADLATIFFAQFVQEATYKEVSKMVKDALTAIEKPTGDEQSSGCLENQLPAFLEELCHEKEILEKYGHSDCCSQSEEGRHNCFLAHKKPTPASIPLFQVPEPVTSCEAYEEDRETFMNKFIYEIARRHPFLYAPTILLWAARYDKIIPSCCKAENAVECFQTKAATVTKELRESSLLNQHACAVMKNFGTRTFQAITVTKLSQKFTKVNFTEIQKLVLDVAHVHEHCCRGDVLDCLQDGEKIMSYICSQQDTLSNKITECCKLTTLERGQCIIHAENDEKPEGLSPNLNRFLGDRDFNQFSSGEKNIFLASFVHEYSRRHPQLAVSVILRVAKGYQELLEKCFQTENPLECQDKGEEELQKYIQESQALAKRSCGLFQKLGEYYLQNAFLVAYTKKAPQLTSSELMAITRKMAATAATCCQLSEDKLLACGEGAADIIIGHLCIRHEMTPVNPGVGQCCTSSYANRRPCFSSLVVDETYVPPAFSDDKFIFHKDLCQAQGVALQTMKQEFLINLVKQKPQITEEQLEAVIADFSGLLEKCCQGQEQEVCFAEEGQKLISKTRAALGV
# Procedure: Absorption spectra of aqueous solutions containing 30 μM of curcumin and various doses of rhAFP: (1) 30 μM of curcumin; (2) 30 μM of curcumin+20 μM rhAFP; (3) 30 μM of curcumin+40 μM rhAFP. Panel at the top (A): absorption spectra of non-covalent complex of rhAFP/curcumin after chromatography through a column with Sephadex G-25.
# Phytochemicals are nonnutritive components of plants that are currently being studies in chemoprevention and combined therapy of cancer. […] Other plant-derived tumoricidal compounds—flavonoids, isoflavonoids, flavons, flavanones, isoflavanones have been widely investigated for their ability to suppress tumor growth in vitro. Some of them display significant homology with steroids and mimic reveal antagonistic or agonistic activity in mammals. Ability of AFP to bind isoflavanoids was documented by various researches (Deutsch H. F, 1991, Adv. Canc. Res. 56, 253-312). […] The absorption spectra of solutions containing curcumin and rhAFP were followed keeping concentration of curcumin constant 30 μM and rhAFP varied from 5 μM to 40 μM. […] FIG. 12A gives the absorption spectral changes in curcumin in the presence of rhAFP in the wavelength range of 250-550 nm. […] Whereas after addition of rhAFP the maximum of absorbance of curcumin blue-shifted from 426 to 350 nm (curve 3). […]
# [2] = system: tumor cells; assay: Combined administration of rhAFP and plant-derived compounds, suppression of tumor cell growth; type: cell-based; conditions: FIG. 12B, C
# [3] = system: Human breast cancer cells MCF-7; assay: Combined treatment of MCF-7 cells with chemotherapeutic agents and rhAFP, MTT or H3-thymidine; type: cell-based; conditions: MCF-7, 72 hrs, agent with addition of 0.1 mg/ml of rhAFP, suboptimal doses, FIG. 8
# Procedure: Cell proliferation was assessed by H3-thymidine incorporation assay or by MTT technique.
# Human breast cancer cells MCF-7 were plated onto 96-well plastic wells (Costar) in 10^4 cells/ml in DMEM medium with addition of 2% fetal calf serum and were treated during 72 hrs with one of chemotherapeutic agents: doxorubicin, cysplatin, etoposide, metatrexate or those with addition of 0.1 mg/ml of rhAFP. Cytotoxic effect was estimated by MTT assay or H3-thymidine incorporation assay. It was observed synergistic enhance of the total tumor-suppressive effect in suboptimal doses of all agents in the presence of AFP (FIG. 8).
# [4] = system: syngeneic leukemia cells P388; assay: Syngeneic acute leukemia P388 in BDF1 mice, survival over 30 days; type: in vivo; conditions: for T (survival, days): single injection
# Description: We have studied the effect of combined treatment with AFP+Dox of acute leukemia in mice BDF1 with transplanted intrapleurally syngeneic P388 leukemia cells. BDF-1 mice (84 male, 28 mice per treatment) were implanted with lethal dose of 12×10^6 syngeneic leukemia cells P388 in the pleural region. Animals were subjected to monotherapy with Dox and combined therapy with rhAFP/Dox upon simultaneous single injection of drugs in various doses. Animal survival was compared over 30 days.
# [5] = system: cells of B-cellular lymphoma Raji; assay: Suppression of growth of Raji cells in vitro, [H3]-thymidine incorporation; type: cell-based, human; conditions: 12 hours with AFP, dose-dependent, FIG. 5
# Procedure: The functional activity of rAFP and the modified forms thereof were determined according to its capability of suppressing the growth of cells of B-cellular lymphoma Raji in the culture in vitro, as earlier described (Semenkova, L. 1997, Tumor Biol. 18, 261-274; Dudich E. I., et al., 1998, Tumor Biol. 198, 30-40). Preliminarily washed by a fresh medium, Raji cells were placed into each cell of a 96-alverolar plate according to 5×10^3 in 0.1 ml of a medium RPMI-1640 in the presence of a 10% fetal calf serum, then different doses of AFP were added for 12 hours. Proliferation of the cells was measured by a standard method by the introduction of [H^3]-thymidine during the last 4 hours of culturing. For comparison, the dose-dependent reactivity was studies for two samples of AFP of embryonal origin embrAFP and yeast rAFP (FIG. 5). […] Similarly, in order to determine the activity to preparations on the base of AFP in vitro, any other lines of cancer cells may be used that are sensitive to the suppressive action of AFP, such as human hepatocarcinoma HepG2, breast cancer MCF-7, prostate cancer LnCap, myeloblastoma U-937 and others (Semenkova, L. 1997, Tumor Biol. 18, 261-274; Dudich E. I., et al., 1998, Tumor Biol. 198, 30-40).
molecule,measurement,setting,value
COc1cc(/C=C/C(=O)CC(=O)/C=C/c2ccc(O)c(OC)c2)ccc1O [curcumin],formation of noncovalent complexes with rhAFP,[1],form noncovalent complexes
same,total tumor suppressive effect upon combined treatment with rhAFP,[2],significant enhance of the total tumor suppressive effect
COc1cc([C@@H]2c3cc4c(cc3[C@@H](O[C@@H]3O[C@@H]5CO[C@@H](C)O[C@H]5[C@H](O)[C@H]3O)[C@H]3COC(=O)[C@H]23)OCO4)cc(OC)c1O [etoposide],total tumor-suppressive effect of agent together with rhAFP,[3],significant synergistic tumor-suppression
"COc1cccc2c1C(=O)c1c(O)c3c(c(O)c1C2=O)C[C@@](O)(C(=O)CO)C[C@@H]3O[C@H]1C[C@H](N)[C@H](O)[C@H](C)O1 [Dox, doxorubicin]",Survival more 30 days,[4]; Dox 3.0 mg/kg,0
same,T/C %,[4]; Dox 3.0 mg/kg,303%
same,"T (survival, days)",[4]; Dox 3.0 mg/kg,[13.9/17.1] 19.7 days
same,Survival more 30 days,[4]; Dox 5.0 mg/kg,0
same,T/C %,[4]; Dox 5.0 mg/kg,315%
same,"T (survival, days)",[4]; Dox 5.0 mg/kg,[17.0/22.4] 20.5 days
same,Survival more 30 days,[4]; Dox 1.o mg/kg,0
same,T/C %,[4]; Dox 1.o mg/kg,238%
same,"T (survival, days)",[4]; Dox 1.o mg/kg,6.5 [6.2/6.8] 15.5 days
same,total tumor-suppressive effect of agent together with rhAFP,[3],significant synergistic tumor-suppression
O=c1c(-c2ccc(O)cc2)coc2cc(O[C@@H]3O[C@H](CO)[C@@H](O)[C@H](O)[C@H]3O)cc(O)c12 [genistin],formation of noncovalent complexes with rhAFP,[1],form noncovalent complexes
same,total tumor suppressive effect upon combined treatment with rhAFP,[2],significant enhance of the total tumor suppressive effect
N.N.[Cl][Pt][Cl] [cysplatin],total tumor-suppressive effect of agent together with rhAFP,[3],significant synergistic tumor-suppression
CN(Cc1cnc2nc(N)nc(N)c2n1)c1ccc(C(=O)N[C@@H](CCC(=O)O)C(=O)O)cc1 [metatrexate],total tumor-suppressive effect of agent together with rhAFP,[3],significant synergistic tumor-suppression
"embrAFP: purified AFP of embryonal origin, obtained from embryonic serum (protein, UniProt P02771 19-609, looked up) Alpha-fetoprotein: RTLHRNEYGIASILDSYQCTAEISLADLATIFFAQFVQEATYKEVSKMVKDALTAIEKPTGDEQSSGCLENQLPAFLEELCHEKEILEKYGHSDCCSQSEEGRHNCFLAHKKPTPASIPLFQVPEPVTSCEAYEEDRETFMNKFIYEIARRHPFLYAPTILLWAARYDKIIPSCCKAENAVECFQTKAATVTKELRESSLLNQHACAVMKNFGTRTFQAITVTKLSQKFTKVNFTEIQKLVLDVAHVHEHCCRGDVLDCLQDGEKIMSYICSQQDTLSNKITECCKLTTLERGQCIIHAENDEKPEGLSPNLNRFLGDRDFNQFSSGEKNIFLASFVHEYSRRHPQLAVSVILRVAKGYQELLEKCFQTENPLECQDKGEEELQKYIQESQALAKRSCGLFQKLGEYYLQNAFLVAYTKKAPQLTSSELMAITRKMAATAATCCQLSEDKLLACGEGAADIIIGHLCIRHEMTPVNPGVGQCCTSSYANRRPCFSSLVVDETYVPPAFSDDKFIFHKDLCQAQGVALQTMKQEFLINLVKQKPQITEEQLEAVIADFSGLLEKCCQGQEQEVCFAEEGQKLISKTRAALGV","cytostatic activity, inhibition of growth of Raji cells",[5],expressed cytostatic activity
